Assay: UV absorbing power (E1% 1 cm)
Type: physicochemical
Conditions: at the λmax printed in Table 1 (290 nm or 305 nm)
Text: Fatty acids of Tung seed oil have good UV absorbing power as is evident from its conjugated system and from its E1% 1 cm of 1600 at 270 nm and 360 at 290 nm. These UV absorbing fatty acids can not only protect the ingredients of the formulations but also the skin and hair from the ravages of solar radiation when the formulations are applied. […] UV B radiation of solar spectrum is the most damaging since it causes skin cancer.
Both homosalate and Octyl salicylates are popular sunscreen molecules all over the world.

CC1CC(OC(=O)c2ccccc2O)CC(C)(C)C1 (stereo not shown) [Homosalate (118-56-9), Homosalate]
E1 %: 180

— patent US12109283B2, “Safe and ecofriendly persistent sanitizing gel for topical application” (GALAXY SURFACTANTS LTD., priority 2021, dated 2024)
